Tests used:
[1] = tested on: PI3K and ERK pathway signaling; experiment: Phase 1 dose-escalation study: pharmacodynamics in paired tumor biopsies; format: in vivo, human
Description: (§1) A Phase I, non-randomized, open-label, dose-escalation study was conducted for Compound A using two dosing schedules to evaluate the safety, PK, and pharmacodynamics of Compound A in subjects with solid tumors or lymphoma.
(§2) Patients received 5, 10 or 50 mg of Compound A either twice daily (bid) or daily (qd) for 28-day cycles. Pharmacokinetics and pharmacodynamic analyses were performed, and tumor response was assessed every 8 weeks.

[2] = Phase 1 dose-escalation study: safety and tolerability (MTD, adverse events); format: in vivo
Description: as §1
Patients were treated with a conventional ‘3+3’ dose-escalation design with cohorts of three to six subjects for up to nine different dose levels on each dosing schedule.
as §2

[3] = tested on: mantle cell lymphoma tumor; experiment: Pharmacodynamic analyses in paired tumor tissue: Ki67 and TUNEL; format: in vivo, human
Description: (§3) The secondary objectives were to determine (a) the plasma pharmacokinetics of Compound A continuous daily dosing; and (b) the pharmacodynamic effects of Compound A on tumor tissue. […] This finding is also reflected in FIG. 3, which depicts PTEN IHC and Ki67 IF staining of lymphoma tumor cells treated with Compound A. PTEN expression was evaluated by immunohistochemistry in formalin fixed, paraffin-embedded tissue sections FFPE (5 micron) with anti-PTEN antibody (NCL-PTEN, clone 28H6, diluted 1/300, Novocastra Laboratories Ltd) utilizing standardized procedures. Cryopreserved tumor biopsy samples were serially sectioned at 5 microns and converted in FFPE sections.

[4] = tested on: relapsed or refractory lymphoma; experiment: Phase 1 dose-expansion lymphoma cohort: best response; format: in vivo, human
Text: (§4) This was a Phase 1, open-label, non-randomized trial of Compound A given orally as a single agent in subjects with lymphoma. The maximum tolerated dose expansion cohort planned enrollment was at least 15 subjects.
The exploratory objectives were to determine (a) the pharmacodynamic effects of Compound A in subjects with lymphoma; (b) the preliminary efficacy data (response rate) for Compound A; and (c) the long-term safety and tolerability of Compound A after repeated twice daily administration.
(§5) The key eligibility include the following: • Histologically confirmed diagnosis of relapsed or refractory lymphoma • Measureable disease • Adequate bone marrow function defined as: • ANC≧1000/mm3 (chronic lymphocytic leukemia with ANC≧500/mm3) • Platelets≧30,000/mm3 • Hemoglobin≧8 g/dL • Availability of archival or fresh tumor tissue • No prior therapy with a selective PI3K inhibitor • Written informed consent.

[5] = Phase 1 dose-expansion lymphoma cohort: safety and tolerability; format: in vivo, human
Text: The following phase 1 study was designed to evaluate the safety and pharmacokinetics of Compound A administered as a continuous daily dosing regimen in an expansion cohort of subjects with relapsed or refractory lymphoma.
as §4
The primary objective was to determine the safety and tolerability of Compound A administered orally, twice daily, as a continuous daily dosing regimen to subjects with relapsed or refractory lymphoma.
as §5

[6] = human, in vivo, 50 mg, 27 day
Text: The secondary objectives were to determine (a) the plasma pharmacokinetics of Compound A continuous daily dosing; and (b) the pharmacodynamic effects of Compound A on tumor tissue.

[7] = Phase 1 dose-escalation study: plasma pharmacokinetics; format: in vivo, human
Description: as §1, §2

PI3K and MAPK pathways = experiment: Pharmacodynamic analyses in paired tumor tissue: phospho-markers; format: in vivo, human; conditions: for % Decrease p4EBP1T70 / % Decrease pAKTS473 / % Decrease pAKTT308 / % Decrease pERKT202/Y204: Mantle Cell Lymphoma, 50 mg BID, PTEN-def
Description: as §3

solid tumors or lymphoma = experiment: Phase 1 dose-escalation study: tumor response; format: in vivo, human
Description: as §1, §2

[8] = paired biopsies of diverse solid tumors, five patients, 50 mg bid
[9] = Mantle Cell Lymphoma, 50 mg BID, D 56 post dose, PTEN-def
[10] = Diffuse Large B-cell Lymphoma, n 2, twice daily continuous dosing
[11] = Follicular Lymphoma, n 4, twice daily continuous dosing
[12] = Mantle Cell Lymphoma, n 5, twice daily continuous dosing
[13] = lymphoma cohort, sixteen subjects

CCn1c(=O)c(-c2ccn[nH]2)cc2c(C)nc(N)nc21 [Compound A, 2-amino-8-ethyl-4-methyl-6-(1H-pyrazol-5-yl)pyrido[2,3-d]pyrimidin-7(8H)-one]
post-dose reduction in p4EBP1 [1, 8]: 62-80% | post-dose reduction in pAKT-T308 [1, 8]: 57-71% | post-dose reduction in pERK [1, 8]: 53-80% | pharmacodynamic modulation of PI3K and ERK pathway signaling ([1]; tumors and surrogate tissues, repeat-dose administration): Robust pharmacodynamic modulation | maximum tolerated dose (MTD) ([2]; bid schedule): 50 mg | most common related adverse events ([2]; in vivo): nausea, diarrhea, anorexia, elevated liver enzymes, skin and subcutaneous disorders, and vomiting | tolerability ([2]; in vivo): generally well-tolerated | maximum tolerated dose (MTD) ([2]; qd schedule): 90 mg | % Decrease Ki67 ([3]; Mantle Cell Lymphoma, 50 mg BID, D 27 post dose, PTEN-def): 98% | % Decrease Ki67 [3, 9]: 99% | TUNEL (fold increase) [3, 9]: 1.5 fold | inhibition of Ki67 proliferation ([3]; mantle cell lymphoma tumor): near complete inhibition of Ki67 proliferation | Best Response: subjects with Partial Response [4, 10]: 1 | Best Response: subjects with Progressive Disease [4, 10]: 1 | Best Response: subjects with Progressive Disease [4, 11]: 1 | Best Response: subjects with Stable Disease [4, 11]: 3 | Best Response: subjects with Stable Disease ([4]; Hodgkin's Lymphoma, n 1, twice daily continuous dosing): 1 | Best Response: subjects with Partial Response [4, 12]: 1^b | Best Response: subjects with Progressive Disease [4, 12]: 1 | Best Response: subjects with Stable Disease [4, 12]: 3 c | Best Response: subjects with Partial Response ([4]; Transformed Lymphoma, n 1, twice daily continuous dosing): 1 days | ALT increased, All Adverse Events, All Grades ([5]; human, in vivo): 3 (19) n (%) | ALT increased, All Adverse Events, Grade ≧ 3 ([5]; human, in vivo): 2 (13) n (%) | ALT increased, Related Adverse Events, All Grades ([5]; human, in vivo): 3 (19) n (%) | ALT increased, Related Adverse Events, Grade ≧ 3 ([5]; human, in vivo): 2 (13) n (%) | AST increased, All Adverse Events, All Grades ([5]; human, in vivo): 4 (25) n (%) | AST increased, All Adverse Events, Grade ≧ 3 ([5]; human, in vivo): 0 n (%) | AST increased, Related Adverse Events, All Grades ([5]; human, in vivo): 3 (19) n (%) | AST increased, Related Adverse Events, Grade ≧ 3 ([5]; human, in vivo): 0 n (%) | Anemia, All Adverse Events, All Grades ([5]; human, in vivo): 3 (19) n (%) | Anemia, All Adverse Events, Grade ≧ 3 ([5]; human, in vivo): 2 (13) n (%) | Anemia, Related Adverse Events, All Grades ([5]; human, in vivo): 1 (6) n (%) | Anemia, Related Adverse Events, Grade ≧ 3 ([5]; human, in vivo): 0 n (%) | Asthenia, All Adverse Events, All Grades ([5]; human, in vivo): 3 (19) n (%) | Asthenia, All Adverse Events, Grade ≧ 3 ([5]; human, in vivo): 2 (13) n (%) | Asthenia, Related Adverse Events, All Grades ([5]; human, in vivo): 0 n (%) | Asthenia, Related Adverse Events, Grade ≧ 3 ([5]; human, in vivo): 0 n (%) | Creatinine increased, All Adverse Events, All Grades ([5]; human, in vivo): 3 (19) n (%) | Creatinine increased, All Adverse Events, Grade ≧ 3 ([5]; human, in vivo): 0 n (%) | Creatinine increased, Related Adverse Events, All Grades ([5]; human, in vivo): 0 n (%) | Creatinine increased, Related Adverse Events, Grade ≧ 3 ([5]; human, in vivo): 0 n (%) | Diarrhea, All Adverse Events, All Grades ([5]; human, in vivo): 6 (38) n (%) | Diarrhea, All Adverse Events, Grade ≧ 3 ([5]; human, in vivo): 0 n (%) | Diarrhea, Related Adverse Events, All Grades ([5]; human, in vivo): 3 (19) n (%) | Diarrhea, Related Adverse Events, Grade ≧ 3 ([5]; human, in vivo): 0 n (%) | Discontinuations of treatment: Adverse event ([5]; human, in vivo): 2 (13) n (%) | Dose modification due to treatment-related toxicities: AST/ALT increase ([5]; human, in vivo): 2 (40) n (%) | Dose modification due to treatment-related toxicities: Amylase increase ([5]; human, in vivo): 1 (20) n (%) | Dose modification due to treatment-related toxicities: Nausea ([5]; human, in vivo): 2 (40) n (%) | Fatigue, All Adverse Events, All Grades ([5]; human, in vivo): 3 (19) n (%) | Fatigue, All Adverse Events, Grade ≧ 3 ([5]; human, in vivo): 1 (6) n (%) | Fatigue, Related Adverse Events, All Grades ([5]; human, in vivo): 1 (6) n (%) | Fatigue, Related Adverse Events, Grade ≧ 3 ([5]; human, in vivo): 0 n (%) | Hyperglycemia, All Adverse Events, All Grades ([5]; human, in vivo): 3 (19) n (%) | Hyperglycemia, All Adverse Events, Grade ≧ 3 ([5]; human, in vivo): 0 n (%) | Hyperglycemia, Related Adverse Events, All Grades ([5]; human, in vivo): 1 (6) n (%) | Hyperglycemia, Related Adverse Events, Grade ≧ 3 ([5]; human, in vivo): 0 n (%) | Nausea, All Adverse Events, All Grades ([5]; human, in vivo): 5 (31) n (%) | Nausea, All Adverse Events, Grade ≧ 3 ([5]; human, in vivo): 0 n (%) | Nausea, Related Adverse Events, All Grades ([5]; human, in vivo): 5 (31) n (%) | Nausea, Related Adverse Events, Grade ≧ 3 ([5]; human, in vivo): 0 n (%) | Patients requiring dose modification due to toxicity ([5]; human, in vivo): 12 (75) n (%) | Patients requiring dose modification due to treatment-related toxicities ([5]; human, in vivo): 5 (31) n (%) | Pyrexia, All Adverse Events, All Grades ([5]; human, in vivo): 4 (25) n (%) | Pyrexia, All Adverse Events, Grade ≧ 3 ([5]; human, in vivo): 0 n (%) | Pyrexia, Related Adverse Events, All Grades ([5]; human, in vivo): 0 n (%) | Pyrexia, Related Adverse Events, Grade ≧ 3 ([5]; human, in vivo): 0 n (%) | Discontinuations of treatment ([5]; in vivo): 14 (88) n (%) | tolerability ([5]; in vivo): well tolerated | Discontinuations of treatment: Death (unrelated to study drug) [5, 13]: 1 (6) n (%) | Discontinuations of treatment: Progressive disease [5, 13]: 8 (50) n (%) | accumulation (AUCtau) on day 27 [6]: approximately 3 fold | exposure versus dose ([7]; bid and qd schedules): increase with increasing dose | half-life ([7]; human, plasma, oral, at steady-state, read-out: Mean t1/2,z): 3 to 9 h | Tmax ([7]; human, plasma, oral, post-dose, read-out: Median tmax): 1 to 3 h | % Decrease p4EBP1T70 (PI3K and MAPK pathways; D 27 post dose): 60% | % Decrease pAKTS473 (PI3K and MAPK pathways; D 27 post dose): 70% | % Decrease pAKTT308 (PI3K and MAPK pathways; D 27 post dose): 65% | % Decrease pERKT202/Y204 (PI3K and MAPK pathways; D 27 post dose): 15% | % Decrease p4EBP1T70 (PI3K and MAPK pathways; D 56 post dose): 60% | % Decrease pAKTS473 (PI3K and MAPK pathways; D 56 post dose): 73% | % Decrease pAKTT308 (PI3K and MAPK pathways; D 56 post dose): 88% | % Decrease pERKT202/Y204 (PI3K and MAPK pathways; D 56 post dose): 74% | inhibition of the PI3K and MAPK pathways (PI3K and MAPK pathways; mantle cell lymphoma tumor): robust inhibition of the PI3K and MAPK pathways | patients on study for ≧16 weeks (solid tumors or lymphoma; in vivo): Eleven | patients on treatment for ≧24 weeks (solid tumors or lymphoma; in vivo): seven | tumor response (solid tumors or lymphoma; one patient with mantle cell lymphoma, treated for 12 cycles): one partial response in MCL | activity in solid tumor patients (solid tumors or lymphoma; solid tumor patients): prolonged disease stabilization

— patent publication US20140296265A1, “Method of Treating Lymphoma Using Pyridopyrimidinone Inhibitors of PI3K/mTOR” (Sanofi, priority 2011, published 2014)
